According to patent US20160002248A1, “GLS1 INHIBITORS FOR TREATING DISEASE” (Board of Regents, The University of Texas System, priority 2014, published 2016):

Assays:
[1] = target: T1, purified recombinant human GAC (GLS1) (Homo sapiens, UniProt O94925); test: GLS1 Enzymatic Activity Assay (dual-coupled enzymatic assay); assay type: biochemical
T1 sequence (O94925 55-598 isoform O94925-3 limits assumed): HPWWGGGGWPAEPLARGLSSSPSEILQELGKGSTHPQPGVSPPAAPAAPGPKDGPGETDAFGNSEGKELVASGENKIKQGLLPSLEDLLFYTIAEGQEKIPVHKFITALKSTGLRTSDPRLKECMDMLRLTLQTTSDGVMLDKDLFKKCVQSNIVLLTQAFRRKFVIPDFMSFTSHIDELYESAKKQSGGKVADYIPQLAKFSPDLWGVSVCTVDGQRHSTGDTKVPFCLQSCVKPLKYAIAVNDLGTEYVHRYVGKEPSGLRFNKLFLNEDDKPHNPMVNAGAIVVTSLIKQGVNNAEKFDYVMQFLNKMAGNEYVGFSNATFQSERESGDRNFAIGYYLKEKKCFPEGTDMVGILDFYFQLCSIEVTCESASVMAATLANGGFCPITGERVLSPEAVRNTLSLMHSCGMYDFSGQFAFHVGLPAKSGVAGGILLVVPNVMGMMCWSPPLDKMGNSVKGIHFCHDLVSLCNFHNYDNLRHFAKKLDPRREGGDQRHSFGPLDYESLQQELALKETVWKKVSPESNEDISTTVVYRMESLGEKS
Method in brief: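 Recombinant human GAC (2 nM) preincubated with 50 mM potassium phosphate, then inhibitor (10 min each, RT); 1 mM glutamine, pH 7.4 Hepes buffer, 1% DMSO. Glutamate coupled via glutamate oxidase/HRP to resorufin (Ex 530/Em 590), kinetic or 20-min endpoint; IC50 by four-parameter logistic fit.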

A549 cells = test: Proliferation Assay (A549 cell viability, Cell Titer Fluor); assay type: cell-based; conditions: Homo sapiens, 72 hours
Method in brief: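 A549 cells in RPMI 1640 with 10% dialyzed FBS were seeded at 1000 cells/well, grown 24 h, then exposed to compound (0.5% DMSO final) for 72 h at 37 °C, 5% CO2. Viability was read by Cell Titer Fluor fluorescence; EC50 from four-parameter logistic fit.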

Row | Structure (SMILES) | IC50 [1] [nM] | EC50 (A549 cells) [nM]
1 | O=C(Nc1nnc(CCCCc2cc3cc(Cc4ccccc4)[nH]c3nn2)s1)[C@H](O)c1ccccc1 [Example 60, (2R)-N-[5-(4-(6-benzyl-7H-pyrrolo[2,3-c]pyridazin-3-yl}butyl)-1,3,4-thiadiazol-2-yl]-2-hydroxy-2-phenylacetamide] | < 100 | 500 to 5000
2 | O=C(Nc1nnc(CCCCc2cc3cc(Cc4ccccc4)[nH]c3nn2)s1)OC1CCOCC1 [Example 61, oxan-4-yl N-[5-(4-{6-benzyl-7H-pyrrolo[2,3-c]pyridazin-3-yl}butyl)-1,3,4-thiadiazol-2-yl]carbamate] | < 100 | 500 to 5000
3 | O=C(Cc1ccccc1)Nc1ccn(CCCCc2cc3cc(Cc4ccccc4)[nH]c3nn2)c(=O)n1 [Example 62, N-[1-(4-{6-benzyl-7H-pyrrolo[2,3-c]pyridazin-3-yl}butyl)-2-oxo-1,2-dihydropyrimidin-4-yl]-2-phenylacetamide] | < 100 | 500 to 5000
4 | O=C(Cc1cccc(OC(F)(F)F)c1)Nc1nnc(CCCCc2cc3cc[nH]c3nn2)s1 [Example 63, N-[5-(4-{7H-pyrrolo[2,3-c]pyridazin-3-yl}butyl)-1,3,4-thiadiazol-2-yl]-2-[3-(trifluoromethoxy)phenyl]acetamide] | 100 to 500 | 500 to 5000
5 | CC(C)CNC(=O)c1cn(CCCCc2cc3cc(Cc4ccccc4)[nH]c3nn2)nn1 [Example 65, 1-(4-{6-benzyl-7H-pyrrolo[2,3-c]pyridazin-3-yl}butyl)-N-(2-methylpropyl)-1H-1,2,3-triazole-4-carboxamide] | 500 to 5000 | 100 to 500
6 | O=C(Nc1nnc(CCCCc2cc3cc[nH]c3nn2)s1)[C@@H](O)c1ccccc1 [Example 66, (2S)-2-hydroxy-2-phenyl-N-[5-(4-{7H-pyrrolo[2,3-c]pyridazin-3-yl}butyl)-1,3,4-thiadiazol-2-yl]acetamide] | 100 to 500 | 500 to 5000
7 | COCCNC(=O)c1nnc(CCCCc2cc3cc(Cc4ccccc4)[nH]c3nn2)s1 [Example 67, 5-(4-{6-benzyl-7H-pyrrolo[2,3-c]pyridazin-3-yl}butyl)-N-(2-methoxyethyl)-1,3,4-thiadiazole-2-carboxamide] | 100 to 500 | 100 to 500
8 | O=C(NCCO)c1nnc(CCCCc2cc3cc(Cc4ccccc4)[nH]c3nn2)s1 [Example 68, 5-(4-{6-benzyl-7H-pyrrolo[2,3-c]pyridazin-3-yl}butyl)-N-(2-hydroxyethyl)-1,3,4-thiadiazole-2-carboxamide] | 500 to 5000 | 500 to 5000
9 | O=C(NCC1COC1)c1nnc(CCCCc2cc3cc(Cc4ccccc4)[nH]c3nn2)s1 [Example 69, 5-(4-{6-benzyl-7H-pyrrolo[2,3-c]pyridazin-3-yl}butyl)-N-(oxetan-3-ylmethyl)-1,3,4-thiadiazole-2-carboxamide] | 100 to 500 | 500 to 5000
10 | CNC(=O)c1nnc(CCCCc2cc3cc(Cc4ccccc4)[nH]c3nn2)s1 [Example 70, 5-(4-{6-benzyl-7H-pyrrolo[2,3-c]pyridazin-3-yl}butyl)-N-methyl-1,3,4-thiadiazole-2-carboxamide] | 100 to 500 | 100 to 500
11 | O=C(NC1COC1)c1nnc(CCCCc2cc3cc(Cc4ccccc4)[nH]c3nn2)s1 [Example 72, 5-(4-{6-benzyl-7H-pyrrolo[2,3-c]pyridazin-3-yl}butyl)-N-(oxetan-3-yl)-1,3,4-thiadiazole-2-carboxamide] | 100 to 500 | > 5000
12 | O=C(NCc1ccccc1)c1nnc(CCCCc2cc3cc(Cc4ccccc4)[nH]c3nn2)s1 [Example 73, N-benzyl-5-(4-{6-benzyl-7H-pyrrolo[2,3-c]pyridazin-3-yl}butyl)-1,3,4-thiadiazole-2-carboxamide] | < 100 | 500 to 5000
13 | O=C(NCc1ccccn1)c1nnc(CCCCc2cc3cc(Cc4ccccc4)[nH]c3nn2)s1 [Example 74, 5-(4-{6-benzyl-7H-pyrrolo[2,3-c]pyridazin-3-yl}butyl)-N-(pyridin-2-ylmethyl)-1,3,4-thiadiazole-2-carboxamide] | < 100 | 100 to 500
14 | O=C(NCc1ccncc1)c1nnc(CCCCc2cc3cc(Cc4ccccc4)[nH]c3nn2)s1 [Example 75, 5-(4-{6-benzyl-7H-pyrrolo[2,3-c]pyridazin-3-yl}butyl)-N-(pyridin-4-ylmethyl)-1,3,4-thiadiazole-2-carboxamide] | 100 to 500 | 500 to 5000
15 | O=C(NCc1cccnc1)c1nnc(CCCCc2cc3cc(Cc4ccccc4)[nH]c3nn2)s1 [Example 76, 5-(4-{6-benzyl-7H-pyrrolo[2,3-c]pyridazin-3-yl}butyl)-N-(pyridin-3-ylmethyl)-1,3,4-thiadiazole-2-carboxamide] | < 100 | 100 to 500
16 | O=C(NCC1CC1)c1nnc(CCCCc2cc3cc(Cc4ccccc4)[nH]c3nn2)s1 [Example 77, 5-(4-{6-benzyl-7H-pyrrolo[2,3-c]pyridazin-3-yl}butyl)-N-(cyclopropylmethyl)-1,3,4-thiadiazole-2-carboxamide] | 100 to 500 | 500 to 5000
17 | O=C(NCC1CCOCC1)c1nnc(CCCCc2cc3cc(Cc4ccccc4)[nH]c3nn2)s1 [Example 78, 5-(4-{6-benzyl-7H-pyrrolo[2,3-c]pyridazin-3-yl}butyl)-N-(oxan-4-ylmethyl)-1,3,4-thiadiazole-2-carboxamide] | 100 to 500 | 500 to 5000
18 | CC(C)(CO)CNC(=O)c1nnc(CCCCc2cc3cc(Cc4ccccc4)[nH]c3nn2)s1 [Example 79, 5-(4-{6-benzyl-7H-pyrrolo[2,3-c]pyridazin-3-yl}butyl)-N-(3-hydroxy-2,2-dimethylpropyl)-1,3,4-thiadiazole-2-carboxamide] | 100 to 500 | 500 to 5000
19 | NC(=O)c1nnc(CCCCc2cc3cc(Cc4ccccc4)[nH]c3nn2)s1 [Example 80, 5-(4-{6-benzyl-7H-pyrrolo[2,3-c]pyridazin-3-yl}butyl)-1,3,4-thiadiazole-2-carboxamide] | 100 to 500 | 500 to 5000
20 | O=C(NCC(F)(F)F)c1nnc(CCCCc2cc3cc(Cc4ccccc4)[nH]c3nn2)s1 [Example 81, 5-(4-{6-benzyl-7H-pyrrolo[2,3-c]pyridazin-3-yl}butyl)-N-(2,2,2-trifluoroethyl)-1,3,4-thiadiazole-2-carboxamide] | 100 to 500 | > 5000
21 | O=C(NCC1CCOC1)c1nnc(CCCCc2cc3cc(Cc4ccccc4)[nH]c3nn2)s1 (centres unmarked) [Example 82, 5-(4-{6-benzyl-7H-pyrrolo[2,3-c]pyridazin-3-yl}butyl)-N-(oxolan-3-ylmethyl)-1,3,4-thiadiazole-2-carboxamide] | 100 to 500 | 500 to 5000
22 | O=C(NCCC(F)(F)F)c1nnc(CCCCc2cc3cc(Cc4ccccc4)[nH]c3nn2)s1 [Example 83, 5-(4-{6-benzyl-7H-pyrrolo[2,3-c]pyridazin-3-yl}butyl)-N-(3,3,3-trifluoropropyl)-1,3,4-thiadiazole-2-carboxamide] | 100 to 500 | > 5000
23 | COC(C)(C)CNC(=O)c1nnc(CCCCc2cc3cc(Cc4ccccc4)[nH]c3nn2)s1 [Example 84, 5-(4-{6-benzyl-7H-pyrrolo[2,3-c]pyridazin-3-yl}butyl)-N-(2-methoxy-2-methylpropyl)-1,3,4-thiadiazole-2-carboxamide] | 100 to 500 | 500 to 5000
24 | O=C(NCc1ccccn1)c1cn(CCCCc2cc3cc(CC4CCCCC4)[nH]c3nn2)nn1 [Example 85, 1-(4-(6-(cyclohexylmethyl)-7H-pyrrolo[2,3-c]pyridazin-3-yl)butyl)-N-(pyridin-2-ylmethyl)-1H-1,2,3-triazole-4-carboxamide] | < 100 | < 100
25 | CC(C)(O)c1ccc(CNC(=O)c2cn(CCCCc3cc4cc(C5CC5)[nH]c4nn3)nn2)cn1 [Example 86, 1-(4-{6-cyclopropyl-7H-pyrrolo[2,3-c]pyridazin-3-yl}butyl)-N-{[6-(2-hydroxypropan-2-yl)pyridin-3-yl]methyl}-1H-1,2,3-triazole-4-carboxamide] | < 100 | 100 to 500
26 | CC(C)(O)c1cccc(CNC(=O)c2cn(CCCCc3cc4cc(C5CC5)[nH]c4nn3)nn2)n1 [Example 87, 1-(4-(6-cyclopropyl-7H-pyrrolo[2,3-c]pyridazin-3-yl)butyl)-N-((6-(2-hydroxypropan-2-yl)pyridin-2-yl)methyl)-1H-1,2,3-triazole-4-carboxamide] | 100 to 500 | 500 to 5000
27 | CCOC(=O)c1cccc(CNC(=O)c2cn(CCCCc3cc4cc(C5CC5)[nH]c4nn3)nn2)n1 [Example 88, ethyl 6-({[1-(4-{6-cyclopropyl-7H-pyrrolo[2,3-c]pyridazin-3-yl}butyl)-1H-1,2,3-triazol-4-yl]formamido}methyl)pyridine-2-carboxylate] | < 100 | 500 to 5000
28 | CC(C)(O)c1ccc(CNC(=O)c2cn(CCCCc3cc4c(Br)c(C5CC5)[nH]c4nn3)nn2)cn1 [Example 89, 1-(4-{5-bromo-6-cyclopropyl-7H-pyrrolo[2,3-c]pyridazin-3-yl}butyl)-N-{[6-(2-hydroxypropan-2-yl)pyridin-3-yl]methyl}-1H-1,2,3-triazole-4-carboxamide] | < 100 | 100 to 500
